The source made the active and inactive calls. No cut-off for these calls is given here.
What was measured:
SAOS-2 = experiment: cells; settings: Homo sapiens, SAOS-2, 24 h
Description: Cytotoxicity against p53 deficient human Saos2 cells assessed as cell growth inhibition after 24 hrs by MTT assay

U2OS [1] = experiment: cells; settings: Homo sapiens, 24 h
Description: Cytotoxicity against wild type p53 expressing human U2OS cells assessed as cell growth inhibition after 24 hrs by MTT assay

U2OS [2] = experiment: Cell cycle arrest in wild type p53 expressing human U2OS cells assessed as decrease in accumulation at S phase at 10 uM after 24 hrs by propidium iodide-based FACS analysis; assay type: functional
U2OS [3] = experiment: Cell cycle arrest in wild type p53 expressing human U2OS cells assessed as increase in accumulation at G1 phase at 10 uM after 24 hrs by propidium iodide-based FACS analysis; assay type: functional
U2OS [4] = experiment: Cell cycle arrest in wild type p53 expressing human U2OS cells assessed as decrease in accumulation at S phase at 5 uM after 24 hrs by propidium iodide-based FACS analysis; assay type: functional
U2OS [5] = experiment: Cell cycle arrest in wild type p53 expressing human U2OS cells assessed as increase in accumulation at G1 phase at 5 uM after 24 hrs by propidium iodide-based FACS analysis; assay type: functional
[6] = Selectivity ratio of IC50 for human Saos2 cells to IC50 for human U2OS cells
U2OS [7] = experiment: Cell cycle arrest in wild type p53 expressing human U2OS cells assessed as decrease in accumulation at S phase at 1 uM after 24 hrs by propidium iodide-based FACS analysis; assay type: functional
[8] = biological target: E3 ubiquitin-protein ligase Mdm2 (Homo sapiens) (UniProt Q00987); experiment: Inhibition of p53-MDM2 interaction in human U2OS cells assessed as p53 activation by measuring p21 accumulation at 1 uM after 7 hrs by Western blot analysis; assay type: cell-based
Chain of E3 ubiquitin-protein ligase Mdm2 (Homo sapiens) (Q00987 whole entry, looked up): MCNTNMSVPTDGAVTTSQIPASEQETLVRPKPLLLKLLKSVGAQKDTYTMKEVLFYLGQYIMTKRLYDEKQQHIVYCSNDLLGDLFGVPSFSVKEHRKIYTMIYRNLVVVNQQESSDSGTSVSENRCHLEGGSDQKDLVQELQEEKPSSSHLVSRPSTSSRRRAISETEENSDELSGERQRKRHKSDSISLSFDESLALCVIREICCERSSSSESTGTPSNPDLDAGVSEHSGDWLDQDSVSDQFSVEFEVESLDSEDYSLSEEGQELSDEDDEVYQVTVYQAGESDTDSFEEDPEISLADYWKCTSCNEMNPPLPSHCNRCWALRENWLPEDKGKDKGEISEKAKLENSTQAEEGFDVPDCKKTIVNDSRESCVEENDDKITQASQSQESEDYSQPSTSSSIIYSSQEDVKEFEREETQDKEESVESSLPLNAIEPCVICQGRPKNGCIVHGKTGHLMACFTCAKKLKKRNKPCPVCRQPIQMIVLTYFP

[9] = biological target: E3 ubiquitin-protein ligase Mdm2 (Homo sapiens) (UniProt Q00987); experiment: Inhibition of p53-MDM2 interaction in human U2OS cells assessed as p53 activation by measuring increase in p21 expression at 1 uM after 24 hrs by Western blot analysis; assay type: cell-based
U2OS [10] = experiment: Cell cycle arrest in wild type p53 expressing human U2OS cells assessed as increase in accumulation at G1 phase at 1 uM after 24 hrs by propidium iodide-based FACS analysis; assay type: functional
[11] = biological target: E3 ubiquitin-protein ligase Mdm2 (Homo sapiens) (UniProt Q00987); experiment: Inhibition of p53-MDM2 interaction in human U2OS cells assessed as p53 activation by measuring increase in MDM2 expression at 1 uM after 7 hrs by Western blot analysis; assay type: cell-based
[12] = biological target: E3 ubiquitin-protein ligase Mdm2 (Homo sapiens) (UniProt Q00987); experiment: Inhibition of p53-MDM2 interaction in human U2OS cells assessed as p53 accumulation at 1 uM after 7 hrs by Western blot analysis; assay type: cell-based
[13] = biological target: E3 ubiquitin-protein ligase Mdm2 (Homo sapiens) (UniProt Q00987); experiment: Inhibition of p53-MDM2 interaction in human HCT116 cells assessed as p53 activation by measuring increase in MDM2 expression at 1 uM after 7 hrs by Western blot analysis; assay type: cell-based
[14] = biological target: E3 ubiquitin-protein ligase Mdm2 (Homo sapiens) (UniProt Q00987); experiment: Inhibition of p53-MDM2 interaction in human HCT116 cells assessed as p53 activation by measuring increase in p21 expression at 1 uM after 24 hrs by Western blot analysis; assay type: cell-based

| Compound | IC50 (SAOS-2) | IC50 (U2OS [1]) | Activity (U2OS [2]) | Activity (U2OS [3]) | Activity (U2OS [4]) | Activity (U2OS [5]) | other results |
| --- | --- | --- | --- | --- | --- | --- | --- |
| O=C(NCCN1CCOCC1)c1[nH]c2cc(Cl)ccc2c1-c1c(-c2ccc(F)cc2)ncn1Cc1ccc(Cl)cc1 | 7.15 µM | 3.67 µM | Active | Active | Active | Active |  |
| O=C(O)CCC(=O)OCCCCCCOC(=O)c1[nH]c2cc(Cl)ccc2c1-c1c(-c2ccc(F)cc2)ncn1Cc1ccc(Cl)cc1 |  |  | Active | Active |  |  |  |
| COc1ccc(C2=N[C@H](c3ccc(Cl)cc3)[C@H](c3ccc(Cl)cc3)N2C(=O)N2CCNC(=O)C2)c(OC(C)C)c1 | 20.2 µM | 2.66 µM |  |  |  |  | Ratio IC50 [6]: 7.59 |
| O=C(O)c1[nH]c2cc(Cl)ccc2c1-c1c(-c2ccc(F)cc2)ncn1Cc1ccc(Cl)cc1 | 55.8 µM | 17.4 µM | Active | Active |  |  |  |
| O=C(OCCN1CCOCC1)c1[nH]c2cc(Cl)ccc2c1-c1c(-c2ccc(F)cc2)ncn1Cc1ccc(Cl)cc1 | 11.7 µM | 7.27 µM |  |  | Active | Active |  |
| O=C(O)CCC(=O)NCCCCCCOC(=O)c1[nH]c2cc(Cl)ccc2c1-c1c(-c2ccc(F)cc2)ncn1Cc1ccc(Cl)cc1 |  |  |  |  | Active | Active |  |
| COc1cc(C(=O)O)ccc1NC(=O)[C@@H]1N[C@@H](CC(C)(C)C)[C@](C#N)(c2ccc(Cl)cc2F)[C@H]1c1cccc(Cl)c1F |  |  |  |  |  |  | Activity (U2OS [7]): Active; inhibition [8]: Active; inhibition [9]: Active; Activity (U2OS [10]): Active; inhibition [11]: Active; inhibition [12]: Active; inhibition [13]: Active; inhibition [14]: Active |

Reference: ChEMBL document CHEMBL4049459, “1,4,5-Trisubstituted Imidazole-Based p53-MDM2/MDMX Antagonists with Aliphatic Linkers for Conjugation with Biological Carriers” (J Med Chem, 2017)
